Laboratory results reported in patent US7589104B2, “Tricyclic-bridged piperidinyline derivatives as §-opioid modulators” (Janssen Pharmaceutica NV, priority 2004, dated 2009).
Read-outs that look alike come from different tables or passages of the source.

What was measured:
delta opioid receptor [1] = target: T1, delta opioid receptor (Mus musculus, UniProt P32300); experiment: [35S]GTPγS Binding Assay in NG108-15 Cell Membranes (Delta Opioid); format: biochemical; conditions: for delta GTPgS Rel Eff: relative efficacy
T1 construct: NG108-15 cell membranes were purchased from Applied Cell Sciences (Rockville, Md.); host or cells: NG108-15 cell membranes (purchased)
T1 sequence (P32300 whole entry): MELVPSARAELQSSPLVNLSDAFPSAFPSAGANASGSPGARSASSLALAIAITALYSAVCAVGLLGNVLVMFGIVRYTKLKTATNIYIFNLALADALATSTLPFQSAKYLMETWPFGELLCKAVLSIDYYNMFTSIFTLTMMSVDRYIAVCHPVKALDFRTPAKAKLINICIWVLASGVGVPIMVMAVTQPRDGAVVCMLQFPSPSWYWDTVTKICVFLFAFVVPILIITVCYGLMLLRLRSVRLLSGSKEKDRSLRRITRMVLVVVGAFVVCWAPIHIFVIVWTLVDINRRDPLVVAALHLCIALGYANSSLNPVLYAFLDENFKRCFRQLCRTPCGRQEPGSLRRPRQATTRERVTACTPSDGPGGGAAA
Procedure: Methods: NG108-15 cell membranes were purchased from Applied Cell Sciences (Rockville, Md.). 8 mg/mL of membrane protein suspended in 10 mM TRIS-HCl pH 7.2, 2 mM EDTA, 10% sucrose. Membranes were maintained at 4-8° C. A 1 mL volume of membranes was added into 10 mL cold binding assay buffer. The assay buffer contained 50 mM Tris, pH 7.6, 5 mM MgCl2, 100 mM NaCl, 1 mM DTT and 1 mM EGTA. The membrane suspension was homogenized twice with a Polytron, and centrifuged at 3000 rpm for 10 min. The supernatant was then centrifuged at 18,000 rpm for 20 min. Ten mL assay buffer was added into the pellet containing tube. The pellet and buffer were mixed with a Polytron.
Incubation procedure: The pellet membranes (75 μg/mL) were preincubated with SPA (10 mg/mL) at 25° C. for 45 min in the assay buffer. […] GTPγS in the same Tris buffer containing 100 μM GDP in total volume of 200 μL. Increasing concentrations of receptor agonists were used to stimulate [35S]- GTPγS binding. The basal binding was tested in the absence of agonists and non-specific binding was tested in the presence of 10 μM unlabeled GTPγS. The data were analyzed on a Packard Top Count.
% of Basal=(stimulated−non specific)*100/(basal−non specific). EC50 values were calculated using GraphPad Prism.

mu opioid receptor = target: T2, mu opioid receptor (Rattus norvegicus, UniProt P33535); experiment: Rat Brain Mu Opioid Receptor Binding Assay
T2 construct: Following incubation with the mu selective peptide ligand, ˜0.8 nM [^3H]DAMGO; from tissue; host or cells: forebrain of male Wistar rats (Charles River)
T2 sequence (P33535 whole entry): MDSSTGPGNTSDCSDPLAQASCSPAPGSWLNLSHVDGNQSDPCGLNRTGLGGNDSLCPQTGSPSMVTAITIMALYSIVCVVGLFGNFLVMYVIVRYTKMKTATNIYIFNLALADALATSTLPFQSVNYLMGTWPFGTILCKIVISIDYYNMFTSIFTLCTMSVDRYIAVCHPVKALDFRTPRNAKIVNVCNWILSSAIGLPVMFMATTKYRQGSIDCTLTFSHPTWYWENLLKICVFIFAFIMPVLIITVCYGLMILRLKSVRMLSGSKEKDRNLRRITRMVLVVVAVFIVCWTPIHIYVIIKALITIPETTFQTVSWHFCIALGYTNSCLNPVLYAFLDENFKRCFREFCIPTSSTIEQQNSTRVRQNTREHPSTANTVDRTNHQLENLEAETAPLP

delta opioid receptor [2] = target: T3, delta opioid receptor (Rattus norvegicus, UniProt P33533); experiment: Rat Brain Delta Opioid Receptor Binding Assay
T3 construct: from tissue; host or cells: forebrain of male Wistar rats (Charles River)
T3 sequence (P33533 whole entry): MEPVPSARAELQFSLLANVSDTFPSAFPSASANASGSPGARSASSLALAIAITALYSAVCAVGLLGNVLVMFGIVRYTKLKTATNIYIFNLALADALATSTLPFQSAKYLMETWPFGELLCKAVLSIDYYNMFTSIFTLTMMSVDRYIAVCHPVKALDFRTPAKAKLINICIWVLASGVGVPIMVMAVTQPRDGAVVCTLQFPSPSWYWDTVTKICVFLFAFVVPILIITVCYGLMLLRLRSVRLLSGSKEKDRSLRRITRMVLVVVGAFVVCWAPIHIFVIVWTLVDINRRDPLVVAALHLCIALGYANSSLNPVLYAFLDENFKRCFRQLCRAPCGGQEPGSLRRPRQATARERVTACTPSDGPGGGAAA

[3] = NG108-15 cell membranes, stimulation of [35S]GTPγS binding, read-out: delta GTPgS EC50
[4] = rat forebrain membranes, [3H]DAMGO, read-out: mu (Ki)
[5] = rat forebrain membranes, [3H]DPDPE or [3H]naltrindole, read-out: delta (Ki)

Compound | EC50 (delta opioid receptor [1]) | delta GTPgS Rel Eff (delta opioid receptor [1]; NG108-15 cell membranes) | Ki (mu opioid receptor) | Ki (delta opioid receptor [2]) | EC50 (delta opioid receptor [1]; [3]) | Ki (mu opioid receptor; [4]) | Ki (delta opioid receptor [2]; [5])
CCN(CC)C(=O)c1ccc2c(c1)Oc1ccccc1C2C1CC2CCC(C1)N2Cc1cccs1 (stereo not shown) [Compound 14a, 9-(8-Thiophen-2-ylmethyl-8-aza-bicyclo[3.2.1]oct-3-yl)-9H-xanthene-3-carboxylic acid diethylamide] | 0.0969 µM | 0.65 | 1.65 µM | 0.0187 µM | – | – | –
CCN(CC)C(=O)c1ccc2c(c1)Oc1ccccc1C2C1CC2CCC(C1)N2Cc1ccccc1 (stereo not shown) [Compound 11a, 9-(8-Benzyl-8-aza-bicyclo[3.2.1]oct-3-yl)-9H-xanthene-3-carboxylic acid diethylamide] | 0.118 µM | 0.78 | 1.12 µM | 0.0199 µM | – | – | –
CCN(CC)C(=O)c1ccc2c(c1)Oc1c(O)cccc1C2C1CC2CCC(C1)N2Cc1ncc[nH]1 (stereo not shown) [Compound 10c, 5-Hydroxy-9-[8-(1H-imidazol-2-ylmethyl)-8-aza-bicyclo[3.2.1]oct-3-yl]-9H-xanthene-3-carboxylic acid diethylamide] | 0.0064 µM | 0.94 | 0.07 µM | 0.00032 µM | – | – | –
9-(8-Furan-3-ylmethyl-8-aza-bicyclo[3.2.1]oct-3-ylidene)-9H-xanthene-3-carboxylic acid diethylamide [Compound 10a] | – | 0.75 | – | – | 0.0211 µM | 0.546 µM | 0.0123 µM
CCN(CC)C(=O)c1ccc2c(c1)Oc1c(OC)cccc1C2C1CC2CCC(C1)N2 (stereo not shown) [Compound 7c, 9-(8-Aza-bicyclo[3.2.1]oct-3-yl)-5-methoxy-9H-xanthene-3-carboxylic acid diethylamide] | 0.0292 µM | 0.80 | 0.463 µM | 0.0031 µM | – | – | –
CCN(CC)C(=O)c1ccc2c(c1)Oc1c(O)cccc1C2C1CC2CCC(C1)N2 (stereo not shown) [Compound 8c, 9-(8-Aza-bicyclo[3.2.1]oct-3-yl)-5-hydroxy-9H-xanthene-3-carboxylic acid diethylamide] | 0.005 µM | 0.85 | 0.075 µM | 0.00129 µM | – | – | –
CCN(CC)C(=O)c1ccc2c(c1)Oc1ccccc1C2C1CC2CCC(C1)N2Cc1ccccn1 (stereo not shown) [Compound 15a, 9-(8-Pyridin-2-ylmethyl-8-aza-bicyclo[3.2.1]oct-3-yl)-9H-xanthene-3-carboxylic acid diethylamide] | – | – | – | 0.0111 µM | 0.155 µM | 1.41 µM | –
CC(=O)Nc1ccccc1-c1ccc2c(c1)Oc1ccccc1C2C1CC2CCC(C1)N2Cc1ccoc1 (stereo not shown) [Compound 13b, N-{2-[9-(8-Furan-3-ylmethyl-8-aza-bicyclo[3.2.1]oct-3-yl)-9H-xanthen-3-yl]-phenyl}-acetamide] | – | – | 1.49 µM | 0.0387 µM | – | – | –
C=CCN1C2CCC1CC(C1c3ccccc3Oc3cc(-c4ccccc4NC(C)=O)ccc31)C2 (stereo not shown) [Compound 18b, N-{2-[9-(8-Allyl-8-aza-bicyclo[3.2.1]oct-3-yl)-9H-xanthen-3-yl]-phenyl}-acetamide] | – | – | – | – | – | 3.2 µM | 0.408 µM
c1ccc(CN2C3CCC2CC(C2c4ccccc4Oc4cc(-c5cccnc5)ccc42)C3)nc1 (stereo not shown) [Compound 10b, 8-Pyridin-2-ylmethyl-3-(3-pyridin-3-yl-9H-xanthen-9-yl)-8-aza-bicyclo[3.2.1]octane] | – | – | 0.35 µM | 0.211 µM | – | – | –
c1ccc2c(c1)Oc1cc(-c3ccncc3)ccc1C2C1CC2CCC(C1)N2Cc1ccoc1 (stereo not shown) [Compound 25b, 8-Furan-3-ylmethyl-3-(3-pyridin-4-yl-9H-xanthen-9-yl)-8-aza-bicyclo[3.2.1]octane] | – | – | 0.775 µM | 0.0224 µM | – | – | –
c1ccc2c(c1)Oc1cc(-c3ccoc3)ccc1C2C1CC2CCC(C1)N2 (stereo not shown) [Compound 5b, 3-(3-Furan-3-yl-9H-xanthen-9-yl)-8-aza-bicyclo[3.2.1]octane] | – | – | 19.7 µM | 3.45 µM | – | – | –
CCN(CC)C(=O)c1ccc2c(c1)Oc1ccc(F)cc1C2C1CC2CCC(C1)N2 (stereo not shown) [Compound 7e, 9-(8-Aza-bicyclo[3.2.1]oct-3-yl)-7-fluoro-9H-xanthene-3-carboxylic acid diethylamide] | – | – | 44 µM | 0.294 µM | – | – | –
CCN(CC)C(=O)c1ccc2c(c1)Oc1c(O)cccc1C2C1CC2CCC(C1)N2Cc1ccoc1 (stereo not shown) [Compound 9c, 9-(8-Furan-3-ylmethyl-8-aza-bicyclo[3.2.1]oct-3-yl)-5-hydroxy-9H-xanthene-3-carboxylic acid diethylamide] | 0.0046 µM | 1.02 | 0.073 µM | 0.00073 µM | – | – | –
CC(=O)Nc1ccccc1-c1ccc2c(c1)Oc1c(O)cccc1C2C1CC2CCC(C1)N2 (stereo not shown) [Compound 3l, N-{2-[9-(8-Aza-bicyclo[3.2.1]oct-3-yl)-5-hydroxy-9H-xanthen-3-yl]-phenyl}-acetamide] | – | – | 0.0204 µM | 0.00155 µM | – | – | –
c1cncc(-c2ccc3c(c2)Oc2ccccc2C3C2CC3CCC(C2)N3Cc2ccoc2)c1 (stereo not shown) [Compound 4b, 8-Furan-3-ylmethyl-3-(3-pyridin-3-yl-9H-xanthen-9-yl)-8-aza-bicyclo[3.2.1]-octane] | – | – | 0.556 µM | 0.0292 µM | – | – | –
CCN(CC)C(=O)c1ccc2c(c1)Oc1ccccc1C2C1CC2CCC(C1)N2C (stereo not shown) [Compound 17a, 9-(8-Methyl-8-aza-bicyclo[3.2.1]oct-3-yl)-9H-xanthene-3-carboxylic acid diethylamide] | – | – | > 10 µM | > 10 µM | – | – | –
CC(=O)Nc1ccccc1-c1ccc2c(c1)Oc1ccccc1C2C1CC2CCC(C1)N2Cc1ccccn1 (stereo not shown) [Compound 15b, N-{2-[9-(8-Pyridin-2-ylmethyl-8-aza-bicyclo[3.2.1]oct-3-yl)-9H-xanthen-3-yl]-phenyl}-acetamide] | – | – | 0.947 µM | 0.102 µM | – | – | –
COc1cccc2c1Oc1cc(-c3ccccc3NC(C)=O)ccc1C2C1CC2CCC(C1)N2 (stereo not shown) [Compound 2l, N-{2-[9-(8-Aza-bicyclo[3.2.1]oct-3-yl)-5-methoxy-9H-xanthen-3-yl]-phenyl}-acetamide] | – | – | – | – | – | 3.7 µM | 0.18 µM
c1ccc2c(c1)Oc1cc(-c3nnn[nH]3)ccc1C2C1CC2CCC(C1)N2 (stereo not shown) [Compound 5j, 3-[3-(1H-Tetrazol-5-yl)-9H-xanthen-9-yl]-8-aza-bicyclo[3.2.1]octane] | – | – | 4.78 µM | 0.477 µM | – | – | –
